Measurements: PubChem BioAssay AID1963848 (Molecular Pharmacology Branch, DTP, NCI, 2024)

System: 379773-124-R-J2-PDC spheroid viability
Test: Anticancer human tumor 379773-124-R-J2-PDC patient-derived endometrial carcinoma cell line growth inhibition [POLQ]
Settings: spheroids with HUVEC and MSC; for IC50: curve of first compound; for viability, T/C: stronger effect = lower value
Outline: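 PDC + HUVEC + MSC complex spheroids; POLQ inhibitors ± partner drugs; top conc. at/near clinical Cmax, else 10 microM (SN-38 1 microM), half-log dilutions; 37 degrees C, 5% CO2.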

[1] = second compound 0.0316 µM, first compound 0.0316 µM
[2] = second compound 0.0316 µM, first compound 0.1 µM
[3] = second compound 0.0316 µM, first compound 0.316 µM
[4] = second compound 0.0316 µM, first compound 1 µM
[5] = second compound 0.0316 µM, first compound 3.16 µM
[6] = second compound 0.0316 µM, first compound 10 µM
[7] = second compound 0.1 µM, first compound 0.0316 µM
[8] = second compound 0.1 µM, first compound 0.1 µM
[9] = second compound 0.1 µM, first compound 0.316 µM
[10] = second compound 0.1 µM, first compound 1 µM
[11] = second compound 0.1 µM, first compound 3.16 µM
[12] = second compound 0.1 µM, first compound 10 µM
[13] = second compound 0.316 µM, first compound 0.0316 µM
[14] = second compound 0.316 µM, first compound 0.1 µM
[15] = second compound 0.316 µM, first compound 0.316 µM
[16] = second compound 0.316 µM, first compound 1 µM
[17] = second compound 0.316 µM, first compound 3.16 µM
[18] = second compound 0.316 µM, first compound 10 µM
[19] = second compound 1 µM, first compound 0.0316 µM
[20] = second compound 1 µM, first compound 0.1 µM
[21] = second compound 1 µM, first compound 0.316 µM
[22] = second compound 1 µM, first compound 1 µM
[23] = second compound 1 µM, first compound 3.16 µM
[24] = second compound 1 µM, first compound 10 µM
[25] = second compound 3.16 µM, first compound 0.0316 µM
[26] = second compound 3.16 µM, first compound 0.1 µM
[27] = second compound 3.16 µM, first compound 0.316 µM
[28] = second compound 3.16 µM, first compound 1 µM
[29] = second compound 3.16 µM, first compound 3.16 µM
[30] = second compound 3.16 µM, first compound 10 µM
[31] = second compound 10 µM, first compound 0.0316 µM
[32] = second compound 10 µM, first compound 0.1 µM
[33] = second compound 10 µM, first compound 0.316 µM
[34] = second compound 10 µM, first compound 1 µM
[35] = second compound 10 µM, first compound 3.16 µM
[36] = second compound 10 µM, first compound 10 µM
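Also: spheroids exposed to drugs for seven days before readout.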
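For viability, T/C in this document: percent viability relative to DMSO vehicle control taken as 100%.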

SMILES: CC(=O)O[C@H]1C(=O)[C@@]2(C)[C@H]([C@H](OC(=O)c3ccccc3)[C@]3(O)C[C@H](OC(=O)[C@H](O)[C@@H](NC(=O)c4ccccc4)c4ccccc4)C(C)=C1C3(C)C)[C@]1(OC(C)=O)CO[C@@H]1C[C@@H]2O + COC1C(OC(N)=O)C(O)C(Oc2ccc3c(O)c(NC(=O)c4ccc(O)c(CC=C(C)C)c4)c(=O)oc3c2C)OC1(C)C
- IC50 (second compound 0.0316 µM): < 9.49 nM
- IC50 (second compound 0.1 µM): < 9.49 nM
- IC50 (second compound 0.316 µM): < 9.49 nM
- IC50 (second compound 1 µM): < 9.49 nM
- IC50 (second compound 3.16 µM): < 9.49 nM
- IC50 (second compound 10 µM): < 9.49 nM
- viability, T/C (second compound 0.0316 µM, first compound 0.00949 µM): 19.1%
- viability, T/C (second compound 0.0316 µM, first compound 0.03 µM): 6.48%
- viability, T/C (second compound 0.0316 µM, first compound 0.0949 µM): 7.9%
- viability, T/C (second compound 0.0316 µM, first compound 0.3 µM): 9.31%
- viability, T/C (second compound 0.0316 µM, first compound 0.949 µM): 7.71%
- viability, T/C (second compound 0.0316 µM, first compound 3 µM): 5.65%
- viability, T/C (second compound 0.1 µM, first compound 0.00949 µM): 23.8%
- viability, T/C (second compound 0.1 µM, first compound 0.03 µM): 7.55%
- viability, T/C (second compound 0.1 µM, first compound 0.0949 µM): 8.46%
- viability, T/C (second compound 0.1 µM, first compound 0.3 µM): 7.94%
- viability, T/C (second compound 0.1 µM, first compound 0.949 µM): 6.43%
- viability, T/C (second compound 0.1 µM, first compound 3 µM): 6.33%
- viability, T/C (second compound 0.316 µM, first compound 0.00949 µM): 18.3%
- viability, T/C (second compound 0.316 µM, first compound 0.03 µM): 8.15%
- viability, T/C (second compound 0.316 µM, first compound 0.0949 µM): 8.46%
- viability, T/C (second compound 0.316 µM, first compound 0.3 µM): 9.54%
- viability, T/C (second compound 0.316 µM, first compound 0.949 µM): 7.17%
- viability, T/C (second compound 0.316 µM, first compound 3 µM): 6.23%
- viability, T/C (second compound 1 µM, first compound 0.00949 µM): 24.1%
- viability, T/C (second compound 1 µM, first compound 0.03 µM): 9.6%
- viability, T/C (second compound 1 µM, first compound 0.0949 µM): 8.23%
- viability, T/C (second compound 1 µM, first compound 0.3 µM): 7.23%
- viability, T/C (second compound 1 µM, first compound 0.949 µM): 8.2%
- viability, T/C (second compound 1 µM, first compound 3 µM): 6.6%
- viability, T/C (second compound 3.16 µM, first compound 0.00949 µM): 22%
- viability, T/C (second compound 3.16 µM, first compound 0.03 µM): 8.1%
- viability, T/C (second compound 3.16 µM, first compound 0.0949 µM): 9.73%
- viability, T/C (second compound 3.16 µM, first compound 0.3 µM): 8.26%
- viability, T/C (second compound 3.16 µM, first compound 0.949 µM): 6.92%
- viability, T/C (second compound 3.16 µM, first compound 3 µM): 6.09%
- viability, T/C (second compound 10 µM, first compound 0.00949 µM): 18.3%
- viability, T/C (second compound 10 µM, first compound 0.03 µM): 7.78%
- viability, T/C (second compound 10 µM, first compound 0.0949 µM): 7.88%
- viability, T/C (second compound 10 µM, first compound 0.3 µM): 7.81%
- viability, T/C (second compound 10 µM, first compound 0.949 µM): 6.9%
- viability, T/C (second compound 10 µM, first compound 3 µM): 8.24%

SMILES: COc1cccc2c1C(=O)c1c(O)c3c(c(O)c1C2=O)CC(O)(C(=O)CO)CC3OC1CC(N)C(O)C(C)O1 (stereo unspecified) + COC1C(OC(N)=O)C(O)C(Oc2ccc3c(O)c(NC(=O)c4ccc(O)c(CC=C(C)C)c4)c(=O)oc3c2C)OC1(C)C
- IC50 (second compound 0.0316 µM): 56.8 nM
- IC50 (second compound 0.1 µM): 64.4 nM
- IC50 (second compound 0.316 µM): 66 nM
- IC50 (second compound 1 µM): 61.8 nM
- IC50 (second compound 3.16 µM): 55.6 nM
- IC50 (second compound 10 µM): 58.5 nM
- viability, T/C [1]: 77.5%
- viability, T/C [2]: 23.3%
- viability, T/C [3]: 6.61%
- viability, T/C [4]: 6.45%
- viability, T/C [5]: 0.84%
- viability, T/C [6]: 0.73%
- viability, T/C [7]: 85.7%
- viability, T/C [8]: 27.9%
- viability, T/C [9]: 6.63%
- viability, T/C [10]: 6.52%
- viability, T/C [11]: 1%
- viability, T/C [12]: 0.1%
- viability, T/C [13]: 83.4%
- viability, T/C [14]: 31.3%
- viability, T/C [15]: 8.56%
- viability, T/C [16]: 7.02%
- viability, T/C [17]: 1.52%
- viability, T/C [18]: 1.06%
- viability, T/C [19]: 82.8%
- viability, T/C [20]: 26.2%
- viability, T/C [21]: 8.01%
- viability, T/C [22]: 5.55%
- viability, T/C [23]: 1.26%
- viability, T/C [24]: 0.1%
- viability, T/C [25]: 75.7%
- viability, T/C [26]: 23.2%
- viability, T/C [27]: 6.39%
- viability, T/C [28]: 6.03%
- viability, T/C [29]: 1.65%
- viability, T/C [30]: 0.73%
- viability, T/C [31]: 84%
- viability, T/C [32]: 19.4%
- viability, T/C [33]: 7.68%
- viability, T/C [34]: 5.68%
- viability, T/C [35]: 0.98%
- viability, T/C [36]: 0.19%

SMILES: O=c1[nH]cc(F)c(=O)[nH]1 + COC1C(OC(N)=O)C(O)C(Oc2ccc3c(O)c(NC(=O)c4ccc(O)c(CC=C(C)C)c4)c(=O)oc3c2C)OC1(C)C
- IC50 (second compound 0.0316 µM): > 10000 nM
- IC50 (second compound 0.1 µM): > 10000 nM
- IC50 (second compound 0.316 µM): > 10000 nM
- IC50 (second compound 1 µM): > 10000 nM
- IC50 (second compound 3.16 µM): > 10000 nM
- IC50 (second compound 10 µM): > 10000 nM
- viability, T/C [1]: 85.1%
- viability, T/C [2]: 83.2%
- viability, T/C [3]: 85.4%
- viability, T/C [4]: 80.3%
- viability, T/C [5]: 69.1%
- viability, T/C [6]: 51.8%
- viability, T/C [7]: 90.7%
- viability, T/C [8]: 88.8%
- viability, T/C [9]: 81.8%
- viability, T/C [10]: 86.2%
- viability, T/C [11]: 68.6%
- viability, T/C [12]: 61%
- viability, T/C [13]: 92.7%
- viability, T/C [14]: 90.4%
- viability, T/C [15]: 80.9%
- viability, T/C [16]: 78%
- viability, T/C [17]: 75.8%
- viability, T/C [18]: 56.6%
- viability, T/C [19]: 82.6%
- viability, T/C [20]: 77.2%
- viability, T/C [21]: 88.4%
- viability, T/C [22]: 74.6%
- viability, T/C [23]: 71.1%
- viability, T/C [24]: 60.3%
- viability, T/C [25]: 78.2%
- viability, T/C [26]: 82.6%
- viability, T/C [27]: 90.4%
- viability, T/C [28]: 70.8%
- viability, T/C [29]: 76.6%
- viability, T/C [30]: 57.5%
- viability, T/C [31]: 75.6%
- viability, T/C [32]: 78.5%
- viability, T/C [33]: 76.1%
- viability, T/C [34]: 71%
- viability, T/C [35]: 70.6%
- viability, T/C [36]: 55.3%
